Measured values published in ChEMBL document CHEMBL3507680, “University of Dundee, Gates Library screen for HepG2 cell viability”.

Experiment: Human HepG2 cell viability assay in 384 well format
Format: toxicity, cell-based
Design: dose 125 nL, time 70.5 hour; concentration not given beside the values
Conditions: HepG2 cells, read-out: Inhibition

Row | SMILES | cytotoxicity at 70.5 h
1 | CCC(C)N(CCOC)Cc1nc2c(cnn2C)c(=O)[nH]1 (configuration not stated) | 17.1%
2 | CN(CCC(F)(F)F)C(=O)c1nc(S(C)(=O)=O)n2ccccc12 | 25.3%
3 | CCCC(C)N(C)C(=O)c1nc(S(C)(=O)=O)n2ccccc12 (configuration not stated) | 0.813%
4 | CC(C)CC(C)N(C)C(=O)c1nc(S(C)(=O)=O)n2ccccc12 (configuration not stated) | 2.74%
5 | CS(=O)(=O)c1cccc(C(=O)N2CCCC(n3cccn3)C2)c1 (configuration not stated) | 2.98%
6 | NS(=O)(=O)Cc1cccc(C(=O)N2CCCC(n3cccn3)C2)c1 (configuration not stated) | 4.57%
7 | CN(C)c1cc2c(nn1)CCN(C(=O)Cc1ccc3c(c1)CCC3)C2 | -1.75%
8 | CCc1ccc(C(=O)O)cc1S(=O)(=O)Nc1ccc2c(c1)OCCO2 | 4.02%
9 | NC(=O)c1cccc(OCC(=O)NS(=O)(=O)c2ccc3c(c2)CCC3)c1 | -0.191%
10 | COCc1nc(C(=O)NS(=O)(=O)c2cc(C)ccc2C)cs1 | 3.09%
11 | Cc1occc1C(=O)N1CCCN(Cc2nccn2C(C)C)CC1 | 20.3%
12 | Cc1ccc(C(=O)N2CCN(Cc3cccs3)CC2)c(=O)[nH]1 | -3.21%
13 | CCC(=O)NCC(=O)NCC1CCN(c2cc(Cl)ccc2C)C1 (configuration not stated) | -1.96%
14 | NC(=O)CN1CCN(C(=O)c2cc(Cl)cc3cccnc23)CC1 | 19.4%
15 | Cc1nccc(C(=O)N2CCCN(Cc3nccn3C(C)C)CC2)n1 | -4.19%
16 | CCOc1ccc(Cl)c(C(=O)NCCC(=O)Nc2ccncc2)n1 | 0.642%
17 | Cc1ccc(Cl)cc1N1CCC(CNC(=O)Cn2cccn2)C1 (configuration not stated) | 5.6%
18 | Cc1cc(C(=O)N2CCCN(Cc3nccn3C(C)C)CC2)no1 | -5.9%
19 | CC(C)c1nc(C2CCCN2CCS(=O)(=O)c2ccccc2)no1 (configuration not stated) | 2.5%

Row | SMILES | cytotoxicity at 70.5 h
20 | CCc1nc(C2CCCN2Cc2ccn(C)c(=O)c2)no1 (configuration not stated) | -2.34%
21 | Cc1nc(C)n(C2CCCN(C(=O)c3cc(C4CC4)on3)C2)n1 (configuration not stated) | 1.36%
22 | Cc1nc(C2CCCN2Cc2ccn(C)c(=O)c2)no1 (configuration not stated) | 0.568%
23 | NC(=O)c1cc(C2CCCN(CCOc3cccc(F)c3)C2)n[nH]1 (configuration not stated) | 13%
24 | O=C1CCc2cc(NC(=O)C3CCCN3c3nccs3)ccc2N1 (configuration not stated) | -1.9%
25 | CCOc1ccc(Cl)c(C(=O)NC)n1 | 0.647%
26 | O=C(NCCn1ccnc1)N1CCCC1c1ccc2c(c1)OCCO2 (configuration not stated) | -4.48%
27 | Cc1noc(C2CCN(C(=O)CCc3ccccn3)CC2)n1 | -4.44%
28 | CC(C)n1ccnc1CN1CCCN(C(=O)c2cnn(C)c2)CC1 | -0.464%
29 | CC(C)n1ccnc1CN1CCCN(C(=O)c2cnc[nH]2)CC1 | -1.35%
30 | COc1ccc(C2CCCN2C(=O)NCCn2ccnc2)cc1OC (configuration not stated) | 0.318%
31 | O=C(NCCn1ccnc1)N1CCCC1c1cccs1 (configuration not stated) | 2.2%
32 | Cc1cc(C(=O)N2CCCC(n3cncn3)C2)no1 (configuration not stated) | -0.711%
33 | Cn1cnc2c1CCN(Cc1csc(-c3ccco3)n1)C2 | 15.3%
34 | COc1cccc(-n2nnc(C(=O)N3CCC(C(N)=O)CC3)c2C)c1 | -8.91%
35 | CC(C)CN1CC(C(=O)NCc2ccnc(-n3cccn3)c2)CC1=O (configuration not stated) | 12.8%
36 | COc1cccc(-n2nnc(C(=O)N3CCCCCC3)c2C)c1 | -12.9%
37 | CCC1c2ccsc2CCN1C(=O)NCc1cccnc1N(C)C (configuration not stated) | 13%
38 | CC(Nc1cccc(CN2CCOC2=O)c1)C(=O)Nc1ccccc1 (configuration not stated) | -22.1%

Row | SMILES | cytotoxicity at 70.5 h
39 | Cc1cccc(NC(=O)C(C)Nc2cccc(CN3CCOC3=O)c2)c1 (configuration not stated) | -7.24%
40 | Cn1ccc(CN2CCC(CC(=O)NC3CCCC3)CC2)cc1=O | 15%
41 | Cn1cc(NC(=O)N2CCC(Cc3ccccc3)CC2)ccc1=O | -2.61%
42 | CN(C)c1ccc(C(=O)N2CCCN(Cc3cnn(C)c3)CC2)nn1 | -8.42%
43 | c1cc(COc2ccc(CNC3CCc4ncnn4C3)cc2)ccn1 (configuration not stated) | -2.99%
44 | Cc1cc(C)n(C2CCCN(C(=O)Cc3cn4ccsc4n3)C2)n1 (configuration not stated) | -13.1%
45 | Cc1cnn(CC2CCCN2C(=O)c2ccc(-n3cccn3)nc2)c1 (configuration not stated) | -1.39%
46 | Cc1cnn(CC2CCCCN2C(=O)c2ccc(NC3CC3)nc2)c1 (configuration not stated) | -4.98%
47 | c1cnnc(N2CCCC2CNCc2nc(-c3ccco3)no2)c1 (configuration not stated) | -14.5%
48 | CCN(CC)c1ccc(C(=O)N2CCCC(n3cncn3)C2)cn1 (configuration not stated) | -4.12%
49 | CC(C)(C)c1nc(CC(=O)N2CCCC(n3cncn3)C2)cs1 (configuration not stated) | -1.77%
50 | CNC(=O)c1ccc(C(=O)N2CCCCC2Cn2cc(C)cn2)cn1 (configuration not stated) | -5.34%
51 | Cc1cnn(CC2CCCN2C(=O)c2ccc(OCC3CC3)nc2)c1 (configuration not stated) | -6.47%
52 | c1ccc(COc2ccccc2CNC2CCc3ncnn3C2)cc1 (configuration not stated) | -6.49%
53 | c1csc(CN2CC(c3nc(-c4cnccn4)no3)C2)c1 | -4.66%
54 | c1cnc(-c2noc(C3CN(Cc4ccsc4)C3)n2)cn1 | -8.37%
55 | CCOC(=O)CN1CC(c2nc(-c3ccsc3)no2)C1 | 0.957%
56 | O=C(CN1CC(c2nc(-c3ccco3)no2)C1)NCCc1ccccc1 | -11.2%
57 | Clc1ccc(COCC2CCN(Cc3ccccn3)CC2)cc1 | -0.416%
